Results published in patent US20090306133A1, “New Acetyl Coenzyme A Carboxylase (ACC) Inhibitors And Uses In Treatments Of Obesity And Diabetes Mellitus - 087” (ASTRAZENECA AB, priority 2007, published 2009).

Experiments:
[1] = biological target: Human recombinant Acetyl-CoA Carboxylase 2 (ACC2) (Homo sapiens, UniProt O00763); experiment: Assay X: ACC2 inhibition, inorganic phosphate (malachite green); type: biochemical; details: Assay X: 37° C., 1.5 h, 5 min pre-incubation
Experimental: (§1) Human recombinant Acetyl-CoA Carboxylase 1 and Acetyl-CoA Carboxylase 2 (ACC1 and ACC2) were assayed by determining the amount of inorganic phosphate (Pi) generated. Pre-incubation of 15 μL enzyme together with 0.75 μL DMSO+/−compound for 5 min was done before the reaction was initiated by the addition of 10 μL substrate. […] After 1.5 h the reaction was stopped by addition of 74 μL of water followed by extensive mixing, split and transfer of 2×40 μL to a read-plate encompassing 30 μL distilled H2O per well (n=2→n=4). Colour reaction was initiated by addition of 30 μL malachite green reagent per well and allowed 15 min before absorbance reading of the plates at 660 nm. The malachite green reagent was prepared by mixing 16.4 mL ammonium molybdate solution (7.5%), 1.64 mL Tween (11%) with 82 mL Malachite Green/H2SO4-solution (0.7 g Malachite Green to 1000 mL of 10% (v/v) H2SO4).
(§2) All compounds were tested in triplicate at 10 different concentrations. Control compound (0, 50 and 100% effect) was included on each plate. […] Curve fitting was done using the following equation: y=(A+((B−A)/(1+((x/C)̂D)))) where A and B represents the curve bottom (% inhibition) and the total amplitude (% inhibition), respectively, whereas C and D are the apparent IC50 and curve slope, respectively.

[2] = biological target: Human recombinant Acetyl-CoA Carboxylase 1 (ACC1) (Homo sapiens, UniProt Q13085); experiment: Assay X: ACC1 inhibition, inorganic phosphate (malachite green); type: biochemical; details: Assay X: 37° C., 1.5 h, 5 min pre-incubation
Experimental: as §1, §2

Chain of Human recombinant Acetyl-CoA Carboxylase 2 (ACC2) (O00763 whole entry): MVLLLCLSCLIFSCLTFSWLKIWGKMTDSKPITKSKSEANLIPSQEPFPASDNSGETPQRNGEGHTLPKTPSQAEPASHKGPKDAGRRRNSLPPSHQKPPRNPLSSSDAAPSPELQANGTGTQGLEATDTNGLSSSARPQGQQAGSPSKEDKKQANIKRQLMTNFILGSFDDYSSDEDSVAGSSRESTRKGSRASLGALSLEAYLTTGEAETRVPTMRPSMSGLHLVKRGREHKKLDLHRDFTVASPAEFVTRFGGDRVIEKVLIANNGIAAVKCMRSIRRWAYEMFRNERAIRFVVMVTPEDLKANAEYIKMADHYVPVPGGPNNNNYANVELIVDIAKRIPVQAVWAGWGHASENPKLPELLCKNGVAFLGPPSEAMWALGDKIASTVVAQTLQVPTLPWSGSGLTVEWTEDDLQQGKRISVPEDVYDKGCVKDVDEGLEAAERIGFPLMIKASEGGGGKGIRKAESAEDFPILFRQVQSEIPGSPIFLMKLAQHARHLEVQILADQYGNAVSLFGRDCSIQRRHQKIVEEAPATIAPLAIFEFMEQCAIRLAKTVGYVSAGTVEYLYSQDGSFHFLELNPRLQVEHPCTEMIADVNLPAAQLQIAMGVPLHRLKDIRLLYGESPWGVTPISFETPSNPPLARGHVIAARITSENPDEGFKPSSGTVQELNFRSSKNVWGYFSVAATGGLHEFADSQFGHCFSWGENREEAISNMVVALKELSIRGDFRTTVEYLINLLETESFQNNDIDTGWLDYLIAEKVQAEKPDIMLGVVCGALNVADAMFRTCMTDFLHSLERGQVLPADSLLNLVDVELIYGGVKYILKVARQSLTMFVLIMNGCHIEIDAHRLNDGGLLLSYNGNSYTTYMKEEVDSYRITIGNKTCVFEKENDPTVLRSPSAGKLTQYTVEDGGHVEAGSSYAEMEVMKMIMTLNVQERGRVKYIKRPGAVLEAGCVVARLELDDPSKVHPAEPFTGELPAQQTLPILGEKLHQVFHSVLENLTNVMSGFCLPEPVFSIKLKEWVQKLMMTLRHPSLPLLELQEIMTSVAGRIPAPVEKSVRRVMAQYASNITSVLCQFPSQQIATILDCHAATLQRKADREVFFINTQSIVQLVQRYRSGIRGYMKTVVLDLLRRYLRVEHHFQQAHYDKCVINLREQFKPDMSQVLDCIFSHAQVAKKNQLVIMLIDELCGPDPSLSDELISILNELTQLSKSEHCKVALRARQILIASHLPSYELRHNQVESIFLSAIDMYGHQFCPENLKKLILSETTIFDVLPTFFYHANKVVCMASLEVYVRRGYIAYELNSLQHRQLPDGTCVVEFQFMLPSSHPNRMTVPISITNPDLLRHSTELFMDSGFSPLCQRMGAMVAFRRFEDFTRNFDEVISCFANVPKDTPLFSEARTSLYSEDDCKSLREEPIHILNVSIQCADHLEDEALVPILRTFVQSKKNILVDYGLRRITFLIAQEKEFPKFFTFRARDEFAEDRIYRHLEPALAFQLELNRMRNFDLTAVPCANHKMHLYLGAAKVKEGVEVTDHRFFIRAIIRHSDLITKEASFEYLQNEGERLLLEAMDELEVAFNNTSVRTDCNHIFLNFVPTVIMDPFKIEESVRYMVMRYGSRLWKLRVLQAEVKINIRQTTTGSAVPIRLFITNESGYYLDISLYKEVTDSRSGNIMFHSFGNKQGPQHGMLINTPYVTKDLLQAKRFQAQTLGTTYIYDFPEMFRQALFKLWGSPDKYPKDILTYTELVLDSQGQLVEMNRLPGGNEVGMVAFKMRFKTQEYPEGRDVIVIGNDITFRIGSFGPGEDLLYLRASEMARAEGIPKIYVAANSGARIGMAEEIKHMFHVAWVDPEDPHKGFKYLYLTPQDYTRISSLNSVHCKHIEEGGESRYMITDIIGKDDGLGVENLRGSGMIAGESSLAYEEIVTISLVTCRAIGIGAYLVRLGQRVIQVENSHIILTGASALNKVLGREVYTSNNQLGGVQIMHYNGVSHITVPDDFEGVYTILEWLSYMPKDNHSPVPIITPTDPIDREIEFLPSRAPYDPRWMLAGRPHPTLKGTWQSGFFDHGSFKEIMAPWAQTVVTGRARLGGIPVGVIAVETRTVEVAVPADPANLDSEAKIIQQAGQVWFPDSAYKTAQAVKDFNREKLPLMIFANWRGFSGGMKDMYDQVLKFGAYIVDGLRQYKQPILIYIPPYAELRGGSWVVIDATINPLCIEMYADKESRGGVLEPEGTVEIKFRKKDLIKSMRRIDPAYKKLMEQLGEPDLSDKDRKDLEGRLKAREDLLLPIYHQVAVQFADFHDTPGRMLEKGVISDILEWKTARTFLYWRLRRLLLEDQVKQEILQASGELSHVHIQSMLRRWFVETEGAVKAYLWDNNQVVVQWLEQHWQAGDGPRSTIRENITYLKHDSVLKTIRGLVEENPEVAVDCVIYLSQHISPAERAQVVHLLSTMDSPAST

| Compound | IC50 [1] [nM] | IC50 [2] [nM] |
| --- | --- | --- |
| CC(C)(C)OC(=O)NC[C@H]1CC[C@H](CNC(=O)c2cc(-c3ccc(NCCOCCO)nc3)nc3ccccc23)CC1 [Example 155, tert-Butyl({trans-4-[({[2-(6-{[2-(2-hydroxyethoxy)ethyl]amino}pyridin-3-yl)quinolin-4-yl]-carbonyl}amino)-methyl]cyclohexyl}methyl)carbamate] | 410 | 1100 |
| COCCNc1ccc(-c2cc(C(=O)NC[C@H]3CC[C@H](CNC(=O)OC(C)(C)C)CC3)c3ccccc3n2)cn1 [Example 156, tert-Butyl{[trans-4-({[(2-{6-[(2-methoxyethyl)amino]pyridin-3-yl}quinolin-4-yl)carbonyl]amino}methyl)cyclohexyl]methyl}carbamate] | 350 | 810 |
| Cc1cnc(CNc2ccc(-c3cc(C(=O)NC[C@H]4CC[C@H](CNC(=O)OC(C)(C)C)CC4)c4ccccc4n3)cn2)cn1 [Example 159, tert-Butyl({trans-4-[({[2-(6-{[(5-methylpyrazin-2-yl)methyl]amino}pyridin-3-yl)quinolin-4-yl]carbonyl}amino)methyl]cyclohexyl}methyl)carbamate] | 280 | 500 |
| CN(C)[C@H]1CCN(c2ccc(-c3cc(C(=O)NC[C@H]4CC[C@H](CNC(=O)OC(C)(C)C)CC4)c4ccccc4n3)cn2)C1 [Example 160, tert-Butyl{[trans-4-({[(2-{6-[(3S)-3-(dimethylamino)-pyrrolidin-1-yl]pyridin-3-yl}quinolin-4-yl)-carbonyl]amino}methyl)cyclohexyl]methyl}carbamate] | 70 | 220 |
| CC(C)(C)OC(=O)NC[C@H]1CC[C@H](CNC(=O)c2cc(-c3ccc(N4CCC(CO)CC4)nc3)nc3ccccc23)CC1 [Example 161, tert-Butyl{[trans-4-({[(2-{6-[4-(hydroxymethyl)piperidin-1-yl]pyridin-3-yl}-quinolin-4-yl)-carbonyl]amino}methyl)cyclohexyl]methyl}carbamate] | 160 | 300 |
| CC(C)(C)OC(=O)NC[C@H]1CC[C@H](CNC(=O)c2cc(-c3ccc(N4CCC[C@H]4C(N)=O)nc3)nc3ccccc23)CC1 [Example 163, tert-Butyl{[trans-4-({[(2-{6-[(2S)-2-carbamoylpyrrolidin-1-yl]pyridin-3-yl}-quinolin-4-yl)-carbonyl]amino}methyl)cyclohexyl]methyl}-carbamate] | 370 | 1100 |
| CC(C)(C)OC(=O)NC[C@H]1CC[C@H](CNC(=O)c2cc(-c3ccc(NC(CO)CO)nc3)nc3ccccc23)CC1 [Example 164, tert-Butyl({trans-4-[({[2-(6-{[2-hydroxy-1-(hydroxymethyl)-ethyl]amino}pyridin-3-yl)quinolin-4-yl]-carbonyl}amino)methyl]cyclohexyl}methyl)-carbamate] | 330 | 1260 |
| CC(C)(C)OC(=O)NC[C@H]1CC[C@H](CNC(=O)c2cc(-c3ccc(N4CCNC(=O)C4)nc3)nc3ccccc23)CC1 [Example 165, tert-Butyl[(trans-4-{[({2-[6-(3-oxopiperazin-1-yl)-pyridin-3-yl]quinolin-4-yl}carbonyl)amino]-methyl}cyclohexyl)methyl]carbamate] | 160 | 540 |
| Cn1cc(CNc2ccc(-c3cc(C(=O)NC[C@H]4CC[C@H](CNC(=O)OC(C)(C)C)CC4)c4ccccc4n3)cn2)cn1 [Example 166, tert-Butyl({trans-4-[({[2-(6-{[(1-methyl-1H-pyrazol-4-yl)methyl]amino}-pyridin-3-yl)quinolin-4-yl]carbonyl}amino)-methyl]cyclohexyl}methyl)carbamate] | 410 | 820 |
| CC(C)(C)OC(=O)NC[C@H]1CC[C@H](CNC(=O)c2cc(-c3ccc(NCCC(N)=O)nc3)nc3ccccc23)CC1 [Example 167, tert-Butyl{[trans-4-({[(2-{6-[(3-amino-3-oxopropyl)amino]pyridin-3-yl}quinolin-4-yl)-carbonyl]amino}methyl)cyclohexyl]methyl}carbamate] | 1580 | 4400 |
| CC(C)(C)OC(=O)NC[C@H]1CC[C@H](CNC(=O)c2cc(-c3ccc(N4CC(O)C4)nc3)nc3ccccc23)CC1 [Example 168, tert-Butyl[(trans-4-{[({2-[6-(3-hydroxyazetidin-1-yl)-pyridin-3-yl]quinolin-4-yl}carbonyl)amino]-methyl}cyclohexyl)methyl]carbamate] | 230 | 680 |
| CC[C@H](Nc1ccc(-c2cc(C(=O)NC[C@H]3CC[C@H](CNC(=O)OC(C)(C)C)CC3)c3ccccc3n2)cn1)C(N)=O [Example 169, tert-Butyl({trans-4-[({[2-(6-{[(1S)-1-carbamoylpropyl]amino}pyridin-3-yl)-quinolin-4-yl]-carbonyl}amino)methyl]cyclohexyl}methyl)carbamate] | 650 | 1370 |
| Cc1nc(CNc2ccc(-c3cc(C(=O)NC[C@H]4CC[C@H](CNC(=O)OC(C)(C)C)CC4)c4ccccc4n3)cn2)no1 [Example 170, tert-Butyl({trans-4-[({[2-(6-{[(5-methyl-1,2,4-oxadiazol-3-yl)methyl]amino}-pyridin-3-yl)quinolin-4-yl]carbonyl}amino)-methyl]cyclohexyl}-methyl)carbamate] | 480 | 1200 |
| CC(C)(C)OC(=O)NC[C@H]1CC[C@H](CNC(=O)c2cc(-c3ccc(N4CNC(=O)C4)nc3)nc3ccccc23)CC1 [Example 172, tert-Butyl[(trans-4-{[({2-[6-(4-oxoimidazolidin-1-yl)-pyridin-3-yl]quinolin-4-yl}carbonyl)amino]-methyl}cyclohexyl)-methyl]carbamate] | 160 | 3500 |
| CC(C)(C)OC(=O)NC[C@H]1CC[C@H](CNC(=O)c2cc(-c3ccc(OCCO)nc3)nc3ccccc23)CC1 [Example 174, tert-Butyl[(trans-4-{[({2-[6-(2-hydroxyethoxy)-pyridin-3-yl]-quinolin-4-yl}-carbonyl)amino]-methyl}cyclohexyl)methyl]carbamate] | 340 | 1000 |
| CC(C)(C)OC(=O)NC[C@H]1CC[C@H](CNC(=O)c2cc(-c3ccc(OC4CCOCC4)nc3)nc3ccccc23)CC1 [Example 175, tert-Butyl[(trans-4-{[({2-[6-(tetrahydro-2H-pyran-4-yloxy)-pyridin-3-yl]-quinolin-4-yl}-carbonyl)amino]-methyl}cyclohexyl)methyl]carbamate] | 500 | 7300 |

Next, values leading:

| IC50 [1] [nM] | IC50 [2] [nM] | Compound |
| --- | --- | --- |
| 1710 | 4310 | CC(C)(C)OC(=O)NC[C@H]1CC[C@H](CNC(=O)c2cc(-c3ccc(OCN4CCCC4=O)nc3)nc3ccccc23)CC1 [Example 177, tert-Butyl{[trans-4-({[(2-{6-[(2-oxopyrrolidin-1-yl)methoxy]pyridin-3-yl}quinolin-4-yl)carbonyl]amino}-methyl)cyclohexyl]-methyl}carbamate] |
| 330 | 1550 | CC(C)(C)OC(=O)NC[C@H]1CC[C@H](CNC(=O)c2cc(-c3ccc(OCC(N)=O)nc3)nc3ccccc23)CC1 [Example 178, tert-Butyl[(trans-4-{[({2-[6-(2-amino-2-oxoethoxy)pyridin-3-yl]quinolin-4-yl}carbonyl)amino]-methyl}cyclohexyl)methyl]carbamate] |
| 550 | 1800 | CN1CCN(CCOc2ccc(-c3cc(C(=O)NC[C@H]4CC[C@H](CNC(=O)OC(C)(C)C)CC4)c4ccccc4n3)cn2)CC1 [Example 179, tert-Butyl{[trans-4-({[(2-{6-[2-(4-methylpiperazin-1-yl)ethoxy]pyridin-3-yl}quinolin-4-yl)carbonyl]amino}-methyl)cyclohexyl]-methyl}carbamate] |
| 1300 | 13600 | CC(C)(C)OC(=O)NC[C@H]1CC[C@H](CNC(=O)c2cc(N3CCNCC3)nc3ccccc23)CC1 [Example 190, tert-Butyl {[trans-4-({[(2-piperazin-1-ylquinolin-4-yl)carbonyl]amino}methyl)-cyclohexyl]methyl}carbamate] |
| 970 | 2960 | CC(=O)NCC1CCN(c2cc(C(=O)NC[C@H]3CC[C@H](CNC(=O)OC(C)(C)C)CC3)c3ccccc3n2)CC1 [Example 191, tert-Butyl [(trans-4-{[({2-[4-(acetamidomethyl)piperidin-1-yl]quinolin-4-yl}carbonyl)amino]methyl}cyclohexyl)methyl]carbamate] |
| 560 | 1960 | CC(=O)NCCC1CCN(c2cc(C(=O)NC[C@H]3CC[C@H](CNC(=O)OC(C)(C)C)CC3)c3ccccc3n2)CC1 [Example 192, tert-Butyl [(trans-4-{[({2-[4-(2-acetamidoethyl)piperidin-1-yl]quinolin-4-yl}carbonyl)amino]methyl}cyclohexyl)methyl]carbamate] |
| 100 | 440 | CN(C)CCC1CCN(c2cc(C(=O)NC[C@H]3CC[C@H](CNC(=O)OC(C)(C)C)CC3)c3ccccc3n2)CC1 [Example 193, tert-butyl {[trans-4-({[(2-{4-[2-(dimethylamino)ethyl]piperidin-1-yl}quinolin-4-yl)carbonyl]amino}methyl)cyclohexyl]methyl}carbamate] |
